The supplement of paper PMC11061612

Tests used:
Experiment in all cases: combination Emax (second highest fraction inhibited in the dose matrix, 72 h); higher = more inhibition; extreme values may be limits of the assay
[1] = system: MCF7 (Breast Carcinoma)
How it was run: (§1)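 Cell lines grown in DMEM/F12 or RPMI with 10% FBS were plated in 1536-well plates and held 24 hours at 37°C, 5% CO2 before 72 hours of exposure to two-drug dose matrices, with DMSO typically at 0.2%. CellTiter-Glo 2.0 luminescence gave viability, which was converted to inhibition. Vehicle wells were set to 0 and blank wells to 1. Combination Emax is the second-highest inhibition in the matrix, and Bliss excess is the observed combination effect minus the expected EA + EB − EA·EB, where EA and EB are the single-agent effects.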

[2] = system: SLVL (B-Cell Non-Hodgkin's Lymphoma)
How it was run: as §1

[3] = system: HCC38 (Breast Carcinoma)
How it was run: as §1

[4] = system: SKN-3 (Head and Neck Carcinoma)
How it was run: as §1

[5] = system: ETK-1 (Biliary Tract Carcinoma)
How it was run: as §1

[6] = system: SW48 (Colorectal Carcinoma)
How it was run: as §1

[7] = system: WSU-DLCL2 (B-Cell Non-Hodgkin's Lymphoma)
How it was run: as §1

[8] = system: P31-FUJ (Acute Myeloid Leukemia)
How it was run: as §1

[9] = system: HCT-116 (Colorectal Carcinoma)
How it was run: as §1

[10] = system: A172 (Glioblastoma)
How it was run: as §1

[11] = system: NOMO-1 (Acute Myeloid Leukemia)
How it was run: as §1

[12] = system: 647-V (Bladder Carcinoma)
How it was run: as §1

[13] = system: SK-LMS-1 (Other Solid Carcinomas)
How it was run: as §1

[14] = system: MEG-01 (Chronic Myelogenous Leukemia)
How it was run: as §1

[15] = system: U-118-MG (Low Grade Glioma)
How it was run: as §1

[16] = system: Saos-2 (Osteosarcoma)
How it was run: as §1

[17] = system: TYK-nu (Ovarian Carcinoma)
How it was run: as §1

[18] = system: BICR78 (Oral Cavity Carcinoma)
How it was run: as §1

[19] = system: RCC10RGB (Kidney Carcinoma)
How it was run: as §1

[20] = system: SNU-61 (Colorectal Carcinoma)
How it was run: as §1

SMILES	combination Emax [1]	combination Emax [2]	combination Emax [3]	combination Emax [4]	combination Emax [5]	combination Emax [6]	combination Emax [7]	combination Emax [8]	combination Emax [9]	combination Emax [10]	combination Emax [11]	combination Emax [12]	combination Emax [13]	combination Emax [14]	combination Emax [15]	combination Emax [16]	combination Emax [17]	combination Emax [18]	combination Emax [19]	combination Emax [20]
C[C@@H](c1ccc2nccn2c1)n1nnc2ncc(-c3cnn(C)c3)nc21 [Savolitinib] + CC1(C)CCC(CN2CCN(c3ccc(C(=O)NS(=O)(=O)c4ccc(NCC5CCOCC5)c([N+](=O)[O-])c4)c(Oc4cnc5[nH]ccc5c4)c3)CC2)=C(c2ccc(Cl)cc2)C1 [Venetoclax] (first compound max 1 µM, 7x7, partner max 1 µM)	0.129	0.406	0.158	0.148	0.0864	0.177	0.304	0.372	0.114	0.145	0.395	0.0716	0.223	0.0651	0.218	0.121	0.168	0.201	0.195	0.143
C[C@@H](c1ccc2nccn2c1)n1nnc2ncc(-c3cnn(C)c3)nc21 [Savolitinib] + Cc1c2c(nn1C)CSCc1cc(n(C)n1)CSc1cc(c3ccccc3c1)OCCCc1c(C(=O)O)n(C)c3c-2c(Cl)ccc13 [AZD5991] (first compound max 1 µM, 7x7, partner max 1 µM)	0.49	0.374	0.207	0.216	0.141	0.24	0.985	0.94	0.162	0.112	0.864	0.233	0.223	0.148	0.258	0.229	0.295	0.231	0.289	0.151
Cn1cnc2c(F)c(Nc3ccc(Br)cc3Cl)c(C(=O)NOCCO)cc21 [Selumetinib] + C=CCn1c(=O)c2cnc(Nc3ccc(N4CCN(C)CC4)cc3)nc2n1-c1cccc(C(C)(C)O)n1 [AZD1775] (first compound max 10 µM, partner max 1 µM)	0.247	0.797	0.377	0.477	0.384	0.433	0.961	0.935	0.785	0.365	0.999	0.651	0.599	0.974	0.327	0.551	0.715	0.344	0.591	0.527
Cn1cnc2c(F)c(Nc3ccc(Br)cc3Cl)c(C(=O)NOCCO)cc21 [Selumetinib] + CC(C)n1c(=O)n(C)c2cnc3cc(F)c(-c4ccc(OCCCN5CCCCC5)nc4)cc3c21 [AZD1390] (first compound max 10 µM, 7x7, partner max 0.3 µM)	0.084	0.448	0.116	0.228	0.122	0.38	0.14	0.555	0.664	0.257	0.767	0.154	0.264	0.671	0.178	0.153	0.548	0.3	0.437	0.389
Cn1cnc2c(F)c(Nc3ccc(Br)cc3Cl)c(C(=O)NOCCO)cc21 [Selumetinib] + CCN(CCO)CCCOc1ccc2c(Nc3cc(CC(=O)Nc4cccc(F)c4)[nH]n3)ncnc2c1 [AZD2811] (first compound max 10 µM, 7x7, partner max 1 µM)	0.191	0.639	0.133	0.27	0.158	0.989	0.127	0.951	0.792	0.416	0.988	0.394	0.334	0.788	0.287	0.472	0.554	0.322	0.505	0.486
Cn1cnc2c(F)c(Nc3ccc(Br)cc3Cl)c(C(=O)NOCCO)cc21 [Selumetinib] + C[C@@H]1COCCN1C2=NC(=NC(=C2)C3(CC3)[S@](=N)(=O)C)C4=C5C=CNC5=NC=C4 [AZD6738] (first compound max 10 µM, 7x7, partner max 10 µM)	0.468	0.671	0.373	0.457	0.587	0.723	0.762	0.948	0.8	0.549	0.994	0.757	0.496	0.975	0.479	0.456	0.732	0.592	0.513	0.527
CC(=O)Nc1cccc(-n2c(=O)n(C3CC3)c(=O)c3c(Nc4ccc(I)cc4F)n(C)c(=O)c(C)c32)c1 [Trametinib] + Cc1nc(-c2cn3c(n2)-c2ccc(-c4cnn(C(C)(C)C(N)=O)c4)cc2OCC3)n(C(C)C)n1 [Taselisib] (first compound max 1 µM, 7x7, partner max 10 µM)	0.732	0.478	0.364	0.655	0.86	0.95	0.936	0.915	1	0.761	0.98	0.456	0.974	0.953	0.757	0.681	0.737	0.726	0.69	0.672
CC1(C)CCC(CN2CCN(c3ccc(C(=O)NS(=O)(=O)c4ccc(NCC5CCOCC5)c([N+](=O)[O-])c4)c(Oc4cnc5[nH]ccc5c4)c3)CC2)=C(c2ccc(Cl)cc2)C1 [Venetoclax] + C1CN(CCC1(C(=O)N[C@@H](CCO)C2=CC=C(C=C2)Cl)N)C3=NC=NC4=C3C=CN4 [Capivasertib] (first compound max 1 µM, 7x7, partner max 3 µM)	0.42	0.786	0.244	0.0823	0.331	0.267	1	0.896	0.309	0.289	0.919	0.218	0.271	0.731	0.4	0.412	0.298	0.323	0.197	0.154
CC1(C)CCC(CN2CCN(c3ccc(C(=O)NS(=O)(=O)c4ccc(NCC5CCOCC5)c([N+](=O)[O-])c4)c(Oc4cnc5[nH]ccc5c4)c3)CC2)=C(c2ccc(Cl)cc2)C1 [Venetoclax] + C=CCn1c(=O)c2cnc(Nc3ccc(N4CCN(C)CC4)cc3)nc2n1-c1cccc(C(C)(C)O)n1 [AZD1775] (first compound max 1 µM, partner max 1 µM)	0.452	0.978	0.573	0.402	0.497	0.809	0.995	0.942	0.579	0.315	0.99	0.612	0.61	0.913	0.357	0.818	0.681	0.553	0.572	0.373
CC1(C)CCC(CN2CCN(c3ccc(C(=O)NS(=O)(=O)c4ccc(NCC5CCOCC5)c([N+](=O)[O-])c4)c(Oc4cnc5[nH]ccc5c4)c3)CC2)=C(c2ccc(Cl)cc2)C1 [Venetoclax] + CCN(CCO)CCCOc1ccc2c(Nc3cc(CC(=O)Nc4cccc(F)c4)[nH]n3)ncnc2c1 [AZD2811] (first compound max 1 µM, 7x7, partner max 1 µM)	0.31	0.901	0.253	0.19	0.259	0.958	0.758	0.932	0.456	0.423	0.905	0.245	0.229	0.799	0.357	0.648	0.247	0.245	0.212	0.168
CC1(C)CCC(CN2CCN(c3ccc(C(=O)NS(=O)(=O)c4ccc(NCC5CCOCC5)c([N+](=O)[O-])c4)c(Oc4cnc5[nH]ccc5c4)c3)CC2)=C(c2ccc(Cl)cc2)C1 [Venetoclax] + CN(C)CCCOc1ccc(-c2ccc3ncc4c(c3c2)n(C2CCOCC2)c(=O)n4C)cn1 [AZD0156] (first compound max 1 µM, 7x7, partner max 1 µM)	0.242	0.848	0.193	0.134	0.202	0.607	0.33	0.861	0.196	0.238	0.912	0.196	0.5	0.782	0.217	0.42	0.174	0.297	0.174	0.182
CC1(C)CCC(CN2CCN(c3ccc(C(=O)NS(=O)(=O)c4ccc(NCC5CCOCC5)c([N+](=O)[O-])c4)c(Oc4cnc5[nH]ccc5c4)c3)CC2)=C(c2ccc(Cl)cc2)C1 [Venetoclax] + COc1cc(Nc2ncc3c(n2)-c2ccc(Cl)cc2C(c2c(F)cccc2OC)=NC3)ccc1C(=O)O [Alisertib] (first compound max 1 µM, 7x7, partner max 10 µM)	0.411	0.932	0.179	0.374	0.453	0.887	0.995	0.906	0.581	0.595	0.884	0.317	0.579	0.817	0.527	0.682	0.521	0.38	0.568	0.263
